# Results as given in US20250154457A1, “T-CELLS FOR ANTI-HIV CAR-T THERAPY AND METHODS OF USE” (City of Hope, priority 2021, published 2025).
# Tests used:
# Assay type in all cases: cell-based
# T-cells [1] = test: 6TG dose titration and multi-dosing selection of enrichment anti-HIV CAR T-cells
# Experimental: The cell counts of the T-cells, in addition to anti-HIV CAR expression percentage were measured over the course of culturing.
# [2] = test system: gp160-expressing HEK293 cells; test: CD69 activation of 6TG enriched anti-HIV CAR Jurkat cells co-cultured with gp160-expressing HEK293 cells; conditions: 24 hour incubation, 6TG selected vs unselected anti-HIV CAR Jurkat cells
# Experimental: Following a 24 hour incubation, CD69 expression was analyzed.
# Jurkat cells = test: 6TG selection of shHPRT-N6 CAR expressing Jurkat cells; conditions: Jurkat cells, 0, 1, or 3 uM 6TG for four days, trypan blue
# Experimental: (§1) FIGS. 2A-2D. 6TG selection of HPRT repressed CAR T-cells. FIG. 2A. Quantitative PCR analysis of HPRT expression following transfection of shHPRT plasmid. Untransfected Jurkat cells were used as a control. FIG. 2B. N6 CAR (control) or shHPRT-N6 CAR were transduced into Jurkat cells and co-cultured with either gp120 expressing HEK293 cells or HEK293 parental cells for 24 hours. Following incubation, the Jurkat cells were analyzed for CD69 expression by flow cytometry. FIG. 2C.
# T-cells [3] = test: Growth and phenotype of enrichment anti-HIV CAR T-cells after 6TG selection
# HPRT = test: Quantitative PCR of HPRT expression after transfection of shHPRT plasmid in Jurkat cells; conditions: transfected with shHPRT plasmid, FIG. 2A
# Experimental: as §1
# CCR5 = CCR5 knockdown in Magi.CCR5 reporter cells (PCR and flow cytometry)
# From the text: FIGS. 5A-5C. Wobble base CCR5 shRNAs functionality. FIG. 5A. Quantitative PCR analysis of MAGI.CCR5 cells transduced with protection CAR (shCCR5w shTat/Rev anti-HIV CAR), compared to mock-transduced cells and cells transduced with conventional anti-HIV CAR without the shRNA. Decreased levels of CCR5 mRNA indicate successful knock-down using the protection CAR. FIG. 5B. CCR5 surface expression on MAGI.CCR5 cells transduced with the protection CAR compared to CCR5 expression on mock-transduced cells and on cells transduced with anti-HIV CAR without the shRNA. FIG. 5C. CCR5 surface expression on T-cells transduced with protection CAR (shCCR5w shTat/Rev anti-HIV CAR), compared to mock-transduced cells and cells transduced with conventional anti-HIV CAR without the shRNA. Decreased levels of CCR5 are indicative of successful knockdown using anti-CCR5 shRNA.
# Next, Applicant determined whether the shRNAs were functional. To test the shCCR5, Applicant transfected the protection and conventional CAR into Magi reporter line expressing CCR5 (Magi.CCR5). […] To confirm knock-down of CCR5, Applicant transduced T-cells with protection and conventional anti-HIV CAR constructs and analyzed CCR5 surface expression.
compound,measurement,setting,value
"Nc1nc(=S)c2[nH]cnc2[nH]1 [6TG, 6-thioguanine]",enrichment of anti-HIV CAR T-cells at 50 nM,"T-cells [1]; 50 nM 6TG, single dose titration",most enrichment potential
same,effect on cell counts at 100 nM,T-cells [1]; 100 nM 6TG,loss of a number of T-cells transduced with the enrichment anti-HIV CAR construct
same,effect on cells at 1 M 6TG,"T-cells [1]; 6TG, data not shown",loss of all T-cells
same,"effect on cell counts at 10, 20, and 50 nM","T-cells [1]; 10, 20, and 50 nM 6TG",exerted toxic effects on the non-transduced T-cells
same,optimized dose of 6TG to enrich CAR T-cells,T-cells [1]; without impacting growth,50 nM
same,activation as assessed by CD69 levels,[2],decrease in activation
same,cell counts and viability after 6TG,Jurkat cells,eliminates cells that lack the anti-HPRT shRNA
same,growth of anti-HIV CAR T-cells,T-cells [3]; 6TG-treated vs not subjected to 6TG,equivalent
same,total T-cell growth,T-cells [3]; after treatment with 6TG,decreased over the course of culture
same,"exhaustion markers (PD-1, Tim3, Lag-3)",T-cells [3]; following 6TG treatment,No noticeable changes
"anti-HPRT shRNA: shRNA that downregulates expression of the HPRT gene, SEQ ID NO:12 (GCACUGAAUAGAAAUGGUGGUUCAAGAGAUCACUAUUUCUAUUCAGUGCUU)",HPRT expression,HPRT,robustly repressed
"shCCR5w: anti-CCR5 shRNA wobble base, SEQ ID NO: 11 (AGUGUCAAGUCCAAUUUGUGGUUCAAGAGAUCAUAGAUUGGACUUGACACUUU)",CCR5 knockdown,CCR5,successful in knocking down CCR5
